Measurements as given in patent US20230059136A1, “THE COMPOUNDS AND COMPOSITIONS FOR TREATING CONDITIONS ASSOCIATED WITH NLRP ACTIVITY” (Novartis AG, priority 2018, published 2023).
Like-named read-outs stand apart in the source and are kept apart here. Values belong to the compound of their own block, whether it stands above or below them.

System: IL-1β production in PMA-differentiated THP-1 cells
Experiment: IL-1β production in PMA-differentiated THP-1 cells stimulated with gramicidin (hTHP-1 assay containing 2% fetal bovine serum)
Type: cell-based, human
Details: 2% fetal bovine serum, read-out: hTHP-1 IC50 (Average IC50 of compounds in hTHP-1 assay)
How it was run: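 THP-1 cells were differentiated with PMA 20 ng/ml for 16-18 h, then plated at 50,000 cells/well in RPMI with 2% FBS. They were preincubated 1 h with compound (100–0.0017 μM final, 0.37% DMSO), then stimulated with gramicidin 5 μM for 2 h. Supernatant IL-1β was measured by HTRF.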

[1] = Homo sapiens, THP-1, Table B1, class symbols
[2] = Homo sapiens, THP-1, Table B2, class symbols
[3] = Homo sapiens, THP-1, Table B1, cells printed as numeric bound
[4] = Homo sapiens, THP-1, Table B2, cells printed as numeric bound

Structure (SMILES): CC(C)c1ccc(F)c(C(C)C)c1CC(=O)N=S(=O)(NC(=O)Cc1c(C(C)C)ccc(F)c1C(C)C)c1ccc(CN(C)C)nc1 (stereo not drawn) [Example 225, N-(6-((dimethylamino)methyl)-N-(2-(3-fluoro-2,6-diisopropylphenyl)acetyl)pyridine-3-sulfonimidoyl)-2-(3-fluoro-2,6-diisopropylphenyl) acetamide]
IC50 [1]: 5 to 30 µM

Structure (SMILES): CC(C)c1cc2c(c(C(C)C)c1CC(=O)N=S(N)(=O)c1cnc(C(C)(O)CO)s1)COC2 (stereo not drawn) [Example 252, N-(amino(2-(1,2-dihydroxypropan-2-yl)thiazol-5-yl) (oxo)-λ^6-sulfaneylidene)-2-(4,6-diisopropyl-1,3-dihydroisobenzofuran-5-yl)acetamide]
IC50 [1]: 1 to 5 µM

Structure (SMILES): CC(C)c1cc2c(c(C(C)C)c1CC(=O)N=S(N)(=O)c1sc(C(C)(C)O)cc1F)COC2 (single isomer, unassigned) [Example 322, (S) or (R)-N-(amino (3-fluoro-5-(2-hydroxypropan-2-yl)thiophen-2-yl)(oxo)-λ^6-sulfaneylidene)-2-(4,6-diisopropyl-1,3-dihydroisobenzofuran-5-yl)acetamide]
IC50 (Table B1, class symbols): 5 to 30 µM

Structure (SMILES): CCc1cc2c(c(C(C)C)c1CC(=O)N=S(N)(=O)c1sc(C(C)(C)O)cc1F)COC2 (single isomer, unassigned) [Example 298, (S) or (R)-N-(amino(3-fluoro-5-(2-hydroxypropan-2-yl)thiophen-2-yl)(oxo)-λ^6-sulfaneylidene)-2-(6-ethyl-4-isopropyl-1,3-dihydroisobenzofuran-5-yl)acetamide]
IC50 (Table B1, class symbols): 5 to 30 µM

Structure (SMILES): CC(C)c1cc(COC2CCCC2)cc(C(C)C)c1CC(=O)N=S(N)(=O)c1cnc(C(C)(C)O)s1 (single isomer, unassigned) [Example 288, (S) or (R)-N-(amino(2-(2-hydroxypropan-2-yl)thiazol-5-yl)(oxo)-λ^6-sulfaneylidene)-2-(4-((cyclopentyloxy)methyl)-2,6-diisopropylphenyl) acetamide]
IC50 [3]: > 30 µM

Structure (SMILES): CC(C)c1ncc(F)c(C(C)C)c1CC(=O)N=S(N)(=O)c1sc(C(C)(C)O)cc1F (single isomer, unassigned) [Example 211, N-(amino(3-fluoro-5-(2-hydroxypropan-2-yl)thiophen-2-yl)(oxo)-λ^6-sulfaneylidene)-2-(5-fluoro-2,4-diisopropylpyridin-3-yl)acetamide]
IC50 (Table B1, class symbols): 0.2 to 1 µM

Structure (SMILES): CC(C)c1cc(C#N)c(F)c(C(C)C)c1CC(=O)N=S(N)(=O)c1nc(C(C)(C)O)cs1 (single isomer, unassigned) [Example 190, (R) or (S)-N-(amino(4-(2-hydroxypropan-2-yl)thiazol-2-yl)(oxo)-λ^6-sulfaneylidene)-2-(4-cyano-3-fluoro-2,6-diisopropylphenyl) acetamide]
IC50 (Table B1, class symbols): 0.04 to 0.2 µM

Structure (SMILES): CC(C)c1ccc(F)c(C(C)C)c1CC(=O)N=S(N)(=O)c1cnc(C(C)(C)O)s1 (single isomer, unassigned) [Example 162, (S) or (R)-N-(amino(2-(2-hydroxypropan-2-yl)thiazol-5-yl)(oxo)-λ^6-sulfaneylidene)-2-(3-fluoro-2,6-diisopropylphenyl) acetamide]
IC50 (Table B1, class symbols): 5 to 30 µM

Structure (SMILES): CC(C)c1cc(CCC2CCOCC2)cc(C(C)C)c1CC(=O)N=[S@](N)(=O)c1cc(C(C)(C)O)n(-c2ccccc2)n1 (single isomer, unassigned) [Example 235, (S) or (R)-N-(amino(5-(2-hydroxypropan-2-yl)-1-phenyl-1H-pyrazol-3-yl)(oxo)-λ^6-2-(2,6-diisopropyl-4-(2-(tetrahydro-2H-pyran-4-yl)ethyl)phenyl)acetamide]
IC50 [3]: > 30 µM

Structure (SMILES): CC(C)c1cc(C#CC2CCOCC2)cc(C(C)C)c1CC(=O)N=S(N)(=O)c1cc(C(C)(C)O)n(-c2ccccc2)n1 (single isomer, unassigned) [Example 277, (R) or (S)-N-(amino (5-(2-hydroxypropan-2-yl)-1-phenyl-1H-pyrazol-3-yl)(oxo-λ^6-sulfaneylidene)-2-(2,6-diisopropyl-4-((tetrahydro-2H-pyran-4-yl)ethynyl)phenyl)acetamide]
IC50 [1]: 0.2 to 1 µM

Structure (SMILES): CC(C)c1c(F)c(C#N)cc(C2CC2)c1CC(=O)N=S(N)(=O)c1sc(C(C)(C)O)cc1F (single isomer, unassigned) [Example 55, (R)- or (S)-2-(4-cyano-6-cyclopropyl-3-fluoro-2-isopropylphenyl)-N-(3-fluoro-5-(2-hydroxypropan-2-yl)thiophen-2-ylsulfonimidoyl)acetamide]
IC50 (Table B1, class symbols): 1 to 5 µM

Structure (SMILES): CC(C)c1ccc(F)c(C(C)C)c1CC(=O)N=S(N)(=O)c1nc(C(C)(C)O)cs1 (single isomer, unassigned) [Example 182, (S) or (R)-N-(amino(4-(2-hydroxypropan-2-yl)thiazol-2-yl)(oxo)-λ^6-sulfaneylidene)-2-(3-fluoro-2,6-diisopropylphenyl) acetamide]
IC50 (Table B1, class symbols): 5 to 30 µM

Structure (SMILES): CC(C)(O)c1ncc(S(N)(=O)=NC(=O)Cc2cc3c(c4c2CCC4)CCC3)s1 (single isomer, unassigned) [Example 313, (R) or (S)-N-(amino(2-(2-hydroxypropan-2-yl)thiazol-5-yl)(oxo)-λ^6-sulfaneylidene)-2-(1,2,3,6,7,8-hexahydro-as-indacen-4-yl)acetamide]
IC50 [1]: 5 to 30 µM

Structure (SMILES): CC(C)c1ccc(C#N)c(C(C)C)c1CC(=O)N=S(N)(=O)c1nc(C(C)(C)O)cs1 (single isomer, unassigned) [Example 180, (S) or (R)-N-(amino(4-(2-hydroxypropan-2-yl)thiazol-2-yl)(oxo)-λ^6-sulfaneylidene)-2-(3-cyano-2,6-diisopropylphenyl) acetamide]
IC50 (Table B1, class symbols): 5 to 30 µM

Structure (SMILES): CC(C)c1cc(-c2ccc3ccccc3c2)cc(C(C)C)c1CC(=O)N=S(N)(=O)c1cnc(C(C)(C)O)s1 (single isomer, unassigned) [Example 163, (R) or (S)-N-(amino(2-(2-hydroxypropan-2-yl)thiazol-5-yl)(oxo)-λ^6-sulfaneylidene)-2-(2,6-diisopropyl-4-(naphthalen-2-yl)phenyl) acetamide]
IC50 (Table B1, class symbols): 0.04 to 0.2 µM

Structure (SMILES): CC(C)c1cc(F)c(F)c(C(C)C)c1CC(=O)N=S(N)(=O)c1nc(C(C)(C)O)cs1 (single isomer, unassigned) [Example 178, (S) or (R)-N-(amino(4-(2-hydroxypropan-2-yl)thiazol-2-yl)(oxo)-λ^6-sulfaneylidene)-2-(3,4-difluoro-2,6-diisopropylphenyl) acetamide]
IC50 (Table B1, class symbols): 1 to 5 µM

Further lines, results first:

IC50 [2]: 5 to 30 µM
Structure (SMILES): COc1ccc(C(C)(C)O)cc1S(N)(=O)=NC(=O)Cc1c(C(C)C)cc(C#N)cc1C(C)C (racemic) [Example 387, (R) and (S)—N-(amino(5-(2-hydroxypropan-2-yl)-2-methoxyphenyl)(oxo)-λ^6-sulfaneylidene)-2-(4-cyano-2,6-diisopropylphenyl)acetamide]

IC50 (Table B2, class symbols): 5 to 30 µM
Structure (SMILES): CC(C)c1cc(C#N)c(F)c(C(C)C)c1CC(=O)N=S(N)(=O)c1sc(C(C)(C)O)nc1CO (racemic) [Example 353, (S) and (R)—N-(amino(4-(hydroxymethyl)-2-(2-hydroxypropan-2-yl)thiazol-5-yl)(oxo)-λ^6-sulfaneylidene)-2-(4-cyano-3-fluoro-2,6-diisopropylphenyl)acetamide]

IC50 [4]: > 30 µM
Structure (SMILES): CC(C)c1cc2ccccc2c(C(C)C)c1CC(=O)N=[S@@](N)(=O)c1cnc(C(C)(C)O)s1 [Example 389, (R)-N-(amino(2-(2-hydroxypropan-2-yl)thiazol-5-yl) (oxo)-λ^6-sulfaneylidene)-2-(1,3-diisopropylnaphthalen-2-yl)acetamide]

IC50 [4]: > 30 µM
Structure (SMILES): CC(C)c1cc2c(cnn2C)c(C(C)C)c1CC(=O)N=S(N)(=O)c1ncc(C(C)(C)O)s1 (stereo not drawn) [Example 391, N-(Amino(5-(2-hydroxypropan-2-yl)thiazol-2-yl)(oxo)-λ^6-sulfaneylidene)-2-(4,6-diisopropyl-1-methyl-1H-indazol-5-yl)acetamide]

IC50 [2]: 0.2 to 1 µM
Structure (SMILES): CC(C)c1cc(C#N)cc(C(C)C)c1CC(=O)N=[S@@](=O)(NC#N)c1ncc(C(C)(C)O)s1 [Example 364, (R)-N-(cyanamido(5-(2-hydroxypropan-2-yl)thiazol-2-yl) (oxo)-λ^6-sulfaneylidene)-2-(4-cyano-2,6-diisopropylphenyl) acetamide]

IC50 [1]: 1 to 5 µM
Structure (SMILES): CNCc1ccc(S(N)(=O)=NC(=O)Cc2c(C(C)C)cc(C(F)F)cc2C(C)C)cc1 (single isomer, unassigned) [Example 330, (R) or (S)-N-(amino(4-((methylamino)methyl)phenyl)(oxo)-λ^6-sulfaneylidene)-2-(4-(difluoromethyl)-2,6-diisopropylphenyl) acetamide]

IC50 [2]: 5 to 30 µM
Structure (SMILES): CC(C)c1cc(C#N)cc(C(C)C)c1CC(=O)N=[S@](=O)(NC#N)c1sc(C(C)(C)O)nc1CCO [Example 373, (S)-N-(cyanamido(4-(2-hydroxyethyl)-2-(2-hydroxypropan-2-yl)thiazol-5-yl)(oxo)-λ^6-sulfaneylidene)-2-(4-cyano-2,6-diisopropylphenyl)acetamide]

IC50 (Table B1, class symbols): 5 to 30 µM
Structure (SMILES): CC(C)c1cc(C(F)F)cc(C(C)C)c1CC(=O)N=S(N)(=O)c1ccc(CN(C)C)cc1 (single isomer, unassigned) [Example 326, (S) or (R)-N-(amino(4-((dimethylamino)methyl)phenyl)(oxo)-λ^6-sulfaneylidene)-2-(4-(difluoromethyl)-2,6-diisopropylphenyl) acetamide]
